Source: US11191773B2, “Methods of treatment for bacterial infections” (President and Fellows of Harvard College, priority 2017, dated 2021)
Values after ≈ are worked out from the molar mass of the structure shown.

Legend:
ΔtolC = assay: Minimum inhibitory concentration assay; format: cell-based, E. coli; details: Escherichia coli, 15 h, read-out: Minimum inhibitory concentration
Method: (§1) We wondered whether it would be possible to separate novobiocin's ability to suppress the IptFG(ch) defects in vivo from its activity against DNA gyrase, its presumed primary target. […] Minimum inhibitory concentrations were measured after a 15-hr incubation period at 37° C.
(§2) Overnight cultures were prepared by transferring 5 mL of sterile LB Miller media to culture tubes and inoculating with the corresponding organism. The tubes were allowed to shake at 220 rpm, 37° C. overnight. 15 μL of overnight culture was diluted in 15 mL of LB Miller in a Falcon tube and was vortexed to mix. In a 96-well plate, 100 μL of diluted culture was added to each well. To column #1, an additional 100 μL of diluted culture and test compound was added (93.7 μL culture+6.35 μL 10 mg/mL novobiocin) or (94.2 μL culture+5.87 μL 10 mg/mL 1-adamantyl-novobiocin) such that the highest concentration tested was 500 μM. Transferred 100 μL from column #1 into column #2, etc, and mixed each time thoroughly. Repeated serial dilution until column #11. Incubated the plate at 37° C. overnight (˜16 h) and read the turbidity (OD600) using a Spectramax 384 plus plate reader (Molecular Devices).

wild type = assay: Minimum inhibitory concentration assay; format: cell-based, E. coli; details: Escherichia coli, 15 h, read-out: Minimum inhibitory concentration
Method: as §1, §2

`CO[C@@H]1[C@@H](OC(N)=O)[C@@H](O)[C@H](Oc2ccc3c(O)c(NC(=O)c4ccc(O)c(CC=C(C)C)c4)c(=O)oc3c2C)OC1(C)C` [Novobiocin, novobiocin] was tested, and the MIC (ΔtolC) was 2 µM (≈ 1.23 µg/mL) and the MIC (wild type) was 62.5 to 125 µM (≈ 38.3 to 76.6 µg/mL).
